For test [1], the target named is T1, porcine pancreatic α-amylase (Sus scrofa, UniProt P00690).
T1 sequence (P00690 16-511): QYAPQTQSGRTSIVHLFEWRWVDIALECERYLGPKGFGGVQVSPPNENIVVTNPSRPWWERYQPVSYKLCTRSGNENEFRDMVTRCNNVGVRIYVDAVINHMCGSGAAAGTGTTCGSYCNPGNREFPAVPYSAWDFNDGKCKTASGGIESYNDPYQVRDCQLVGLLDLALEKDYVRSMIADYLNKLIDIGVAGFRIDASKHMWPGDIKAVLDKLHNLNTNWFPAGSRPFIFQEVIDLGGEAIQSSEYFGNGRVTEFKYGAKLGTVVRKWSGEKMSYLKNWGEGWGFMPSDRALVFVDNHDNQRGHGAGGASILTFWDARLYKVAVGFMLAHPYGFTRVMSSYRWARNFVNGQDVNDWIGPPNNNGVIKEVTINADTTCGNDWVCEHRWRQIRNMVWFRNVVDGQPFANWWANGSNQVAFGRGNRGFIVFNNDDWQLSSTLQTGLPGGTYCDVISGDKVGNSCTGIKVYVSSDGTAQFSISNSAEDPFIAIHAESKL
The test can be described thus: starch hydrolysis by α-amylase monitored by isothermal titration calorimetry (ITC). The format is biochemical. The settings on record: for inhibition mechanism suggested by Kic/Kiu ratios: polyphenol standards; for remaining activity at 25 µM: 25 μM EGCG. The procedure:
The amylase stock solution was diluted each day and stored during the day at 4 °C.
The experiments were conducted using an Affinity ITC LV instrument with a cell volume of 182 μL (TA Instruments, Eschborn, Germany). […] These controls were conducted to determine the optimal injection volume to achieve maximal velocity (vmax) (S11). […] Enzyme kinetic constants were determined at 310 K.
The heat released during starch conversion was continuously monitored, with calculations performed using Microsoft Excel® software. The enzymatic rate (v) is directly proportional to the measured thermal power (eq (1)).(1) v=dP/dt=1/Vcell·ΔRHapp·dQ/dt
The reaction enthalpy ( ΔRHapp ) is determined by integrating the heat peak over its entire duration, divided by the number of substrate molecules converted:(2) ΔRHapp=∫t=0∞dQ/dtdt/nS
(dQ/dt)max [%], ΔRHapp [%] und vmax [%] are calculated in relation to daily control.
The substrate concentration at time t ([S]t) is calculated according to eq (3).(3) [S]t=∫t∞dQ/dtdt/∫0∞dQ/dtdt·[S]t=0
Therefore, the thermogram contains all the required data for calculating inhibition constants. The maximal conversion rate vmax and the Michaelis-Menten constant Km are determined from control experiments conducted in the absence of an inhibitor. In the presence of an inhibitor [I] the apparent values of vmaxapp and Kmapp are obtained. Competitive inhibition (Kic, eq (5)) is due to the formation of an enzyme-inhibitor complex (EI), whereas uncompetitive inhibition (Kiu, eq (5)) occurs when an inhibitor binds to a […]:(5) Kic=vmaxapp/Kmapp·[I]/(vmax/Km)−(vmaxapp/Kmapp)Kiu=vmaxapp·[I]/vmax−vmaxapp
The IC50 value, a key pharmacological metric, is used to compare the potency of inhibitors. […] The conversion rate (v0) was calculated from the thermogram according to eq (1), and subsequently plotted against the […]

Test [2] deals with α-amylase. Particulars: substrate starch, DNS UV/Vis, cited from earlier work.
The target in test [3] is α-amylase. Also noted: method as in Kaeswurm et al. (2019). Particulars: substrate GalG2CNP, CNP UV/Vis, ref Kaeswurm et al. (2019), cited from earlier work.
Test [4] deals with α-amylase. Also noted: method as in Narita and Inouye (2011). Particulars: substrate G2-pNP, pNP UV/Vis, ref Narita and Inouye (2011), cited from earlier work.
In test [5] the target is α-amylase. Also noted: method as in Nyambe-Silavwe et al. (2015). The settings on record: substrate amylose, amylopectin, DNS UV/Vis; ref Nyambe-Silavwe et al. (2015); cited from earlier work.
Test [6] deals with α-amylase. Also noted: method as in Zheng et al. (2020). The settings on record: substrate starch, D-glucose assay UV/Vis, ref Zheng et al. (2020), cited from earlier work.
Setting [7] is: 100 μM polyphenol, relative to control, read-out: vmax [%].
Setting [8] is: calculated based on the mass concentration.
[9] abbreviates: calculated based on the mass concentration, read-out: Kic [g/L] (converted).
[10] abbreviates: calculated based on the mass concentration, read-out: Kiu [g/L] (converted).
The mark [11] stands for this setting: competitive inhibition constant, substrate starch, ITC, 100 μM polyphenol (EGCG 25 μM), read-out: Kic.
Where [12] appears, read: substrate starch, ITC, calculated by eq (6), substrate concentration of 1 M (IC50 equivalent to Kiu), read-out: IC50*.
The mark [13] stands for this setting: uncompetitive inhibition constant, substrate starch, ITC, 100 μM polyphenol (EGCG 25 μM), read-out: Kiu.

We go through three compounds from publication PMC12810351, “Structure-effect relationship of phenolic compounds on α-amylase inhibition studied by isothermal titration calorimetry” (Current Research in Food Science, 2025).

Where two headings read alike, the source gives them in different places.

As to `O=C(/C=C/c1ccc(O)c(O)c1)O[C@@H]1C[C@](O)(C(=O)O)C[C@@H](O)[C@H]1O` [CA, Chlorogenic acid], the figures for the remaining activity at 100 µM in test [1] (setting [7]) and in test [1] (read-out: (dQ/dt)max [%]) were 72 ± 6% and 77 ± 5%, respectively. In addition, the “α (Kic/Kiu)” value in test [1] (setting [8]) is 0.70 ± 0.03. For the same compound, the IC50 in test [1] (calculated based on the mass concentration, read-out: IC50 [g/L] (converted)) was 198 µM; in test [1] (setting [12]) it was 278 ± 100 µM; on α-amylase [2] (ref Souza Schmidt Gonçalves et al. (2010)) it was 3.9 µM; on α-amylase [3] it was 413 µM; on α-amylase [4], 400 µM. In addition, the Ki in test [1] (setting [9]) is 198 µM; in test [1] (setting [10]), 282 µM; in test [1] (setting [11]) it was 195 ± 68 µM; in test [1] (setting [13]), 279 ± 100 µM; on α-amylase [3] (read-out: Kic) it was 406 µM; on α-amylase [3] (read-out: Kiu), 413 µM. The Ki at α-amylase [4] (read-out: Kic) was 1120 µM; on α-amylase [4] (read-out: Kiu) it was 270 µM. Moreover, in test [1], the “inhibition mechanism suggested by Kic/Kiu ratios” value was “preferentially bind to the enzyme”. The inhibition type result in test [1] (substrate starch, ITC) was “mixed”.

Take `O=C(O[C@@H]1Cc2c(O)cc(O)cc2O[C@@H]1c1cc(O)c(O)c(O)c1)c1cc(O)c(O)c(O)c1` [EGCG, epigallocatechin gallate]: the remaining activity at 25 µM worked out at 38 ± 4% in test [1] (relative to control, read-out: (dQ/dt)max [%]) and 49 ± 2% in test [1] (relative to control, read-out: vmax [%]). Moreover, the “reversibility of inhibition (from ΔRHapp)” value in test [1] (100 μM polyphenol (EGCG 25 μM)) was “irreversible aggregation”. Further, the “α (Kic/Kiu)” value in test [1] (setting [8]) was 0.73 ± 0.01. Besides, the Ki in test [1] (setting [9]) is 21.8 µM; in test [1] (setting [10]) it was 21.8 µM; in test [1] (setting [11]) it was 19 ± 2 µM; in test [1] (setting [13]), 26 ± 2 µM; at α-amylase [3] (read-out: Kic) it was 124 µM; at α-amylase [3] (read-out: Kiu) it was 58 µM. The “inhibition mechanism suggested by Kic/Kiu ratios” value in test [1] was “preferentially bind to the enzyme”. Besides, in test [1] (substrate starch, ITC), the inhibition type result was “mixed”. Further, the IC50 in test [1] (setting [12]) was 25 ± 2 µM; on α-amylase [3], 58 µM; on α-amylase [5], 5.3 to 60 µM.

As to `COc1cc(/C=C/C(=O)O)ccc1O` [FA, ferulic acid], the remaining activity at 100 µM in test [1] (100 μM polyphenol, 26 nM α-amylase, starch, 310 K, relative to control without inhibitor, read-out: (dQ/dt)max [%]) amounted to 94 ± 12%; in test [1] (setting [7]) it was 95 ± 3%. The “α (Kic/Kiu)” value in test [1] (setting [8]) is given as 0.67 ± 0.30. Further, the Ki was 1240 µM in test [1] (setting [9]); 2370 µM in test [1] (setting [10]); 1240 ± 235 µM in test [1] (setting [11]); 2360 ± 1480 µM in test [1] (setting [13]); 3400 µM on α-amylase [6] (read-out: Kic); 3630 µM on α-amylase [6] (read-out: Kiu). Further, the Ki at α-amylase [4] (read-out: Kic) was 11200 µM; on α-amylase [4] (read-out: Kiu), 4870 µM. For the same compound, in test [1] (substrate starch, ITC), the inhibition type entry was “mixed”. Also, the IC50 was 2350 ± 1470 µM in test [1] (setting [12]), 3200 µM on α-amylase [6], above 5150 µM on α-amylase [2] (ref Aleixandre et al. (2022)) and 5450 µM at α-amylase [4].
